The test system of one data set is DENV2. The experiment in a line: microbe, parasite or virus in culture. Type of data set: cell-based, dengue virus (DENV2, New Guinea C strain). The settings on record: read-out: DENV Inhibition EC50.
A short description of a further data set: in vitro. The settings on record: human.
Setting [1] is: Dengue virus, DENV2, Huh-7, 48 h.

Structures are written as SMILES. Where two headings read alike, the source gives them in different places.

Regarding `Brc1ccc2nccc(Nc3cccc4c3COC4)c2c1` [Compound 31], the EC50 (as a rule, the concentration that produces a half-maximal response) with DENV2 (setting [1]) is greater than 10 µM. This compound registered a CC50 in “in vitro” greater than 10 µM.

As to `Brc1ccc2nccc(Nc3cccc4c3OCC4)c2c1` [Compound 36], in the data set with DENV2 (setting [1]), the EC50 stood at 5.7 µM. The CC50 at 48 h in the data set “in vitro” is greater than 10 µM.

On to `Brc1ccc2nccc(Nc3cccc4oncc34)c2c1` [Compound 40], for which, in the data set with DENV2 (setting [1]), the EC50 was greater than 10 µM. For the same compound, the CC50 at 48 h in “in vitro” was greater than 10 µM.

As for `FC1(F)Oc2cccc(Nc3ccnc4ccc(Br)cc34)c2O1` [Compound 34], the EC50 in the data set with DENV2 (setting [1]) is 7.1 µM. The compound further showed a CC50 in the data set “in vitro” greater than 10 µM.

`Brc1ccc2nccc(Nc3ccc4cn[nH]c4c3)c2c1` [Compound 49]: the EC50 with DENV2 (setting [1]) came to 1.8 µM. For the same compound, in “in vitro”, the CC50 is greater than 10 µM.

Regarding `Nc1cccc(Nc2ccnc3ccc(Br)cc23)c1` [Compound 20], the EC50 with DENV2 (setting [1]) is greater than 10 µM. The same compound yielded a CC50 in “in vitro” greater than 10 µM.

Regarding `CN(C)c1cccc(Nc2ccnc3ccc(Br)cc23)c1` [Compound 22], the EC50 with DENV2 (setting [1]) is greater than 10 µM. The compound also registered a CC50 in “in vitro” greater than 10 µM.

Take `CN(C)c1cccc(Nc2ccnc3ccc(C(F)(F)F)cc23)c1` [Compound 9]: the EC50 in the data set on DENV2 (setting [1]) worked out at 2.3 µM. Moreover, the CC50 in the data set “in vitro” is greater than 10 µM.

As for `Fc1ccc2c(c1Nc1ccnc3ccc(Br)cc13)OCO2` [Compound 32], the EC50 with DENV2 (setting [1]) is 1.9 µM. Moreover, in the data set “in vitro”, the CC50 at 48 h is greater than 10 µM.

Regarding `Oc1cccc(Nc2ccnc3ccc(C(F)(F)F)cc23)c1` [Compound 5], the EC50 in the data set on DENV2 (setting [1]) was found to be 2.7 µM. Further, the CC50 in the data set “in vitro” is greater than 10 µM.

For the compound `CS(=O)(=O)c1ccc2nccc(Nc3cccc(O)c3)c2c1` [Compound 18], the EC50 in the data set with DENV2 (setting [1]) is greater than 10 µM. This compound also registered a CC50 in “in vitro” greater than 10 µM.

Take `Brc1ccc2nccc(Nc3cccc4ncoc34)c2c1` [Compound 41]: the EC50 in the data set with DENV2 (setting [1]) stood at 3.2 µM. This compound also gave a CC50 in “in vitro” greater than 10 µM.

On to `Brc1ccc2nccc(Nc3cccc4sccc34)c2c1` [Compound 43], for which the EC50 with DENV2 (setting [1]) turned out to be 2.9 µM. The same compound had a CC50 in the data set “in vitro” greater than 10 µM.

Turning to `O=[N+]([O-])c1cccc(Nc2ccnc3ccc(C(F)(F)F)cc23)c1` [Compound 6], the half-maximal effective concentration (EC50) with DENV2 (setting [1]) is greater than 10 µM. This compound came in with a CC50 in the data set “in vitro” greater than 10 µM.

Take `Cn1c(=O)[nH]c2cc(Nc3ccnc4ccc(Br)cc34)ccc21` [Compound 55]: the EC50 in the data set with DENV2 (setting [1]) worked out at 7.1 µM. In “in vitro”, this compound came in with a CC50 at 48 h greater than 10 µM.

Consider `O=S1(=O)Cc2ccc(Nc3ccnc4ccc(Br)cc34)cc2C1` [Compound 56], for which the EC50 with DENV2 (setting [1]) stood at 6.3 µM. The same compound displayed a CC50 at 48 h in the data set “in vitro” greater than 10 µM.

Consider `O=[N+]([O-])c1cccc(Nc2ccnc3ccc(Br)cc23)c1` [Compound 19], for which the EC50 in the data set on DENV2 (setting [1]) was greater than 10 µM. Also, the CC50 in the data set “in vitro” was greater than 10 µM.

For `OCc1cccc(Nc2ccnc3ccc(Br)cc23)c1` [Compound 23], in the data set on DENV2 (setting [1]), the EC50 was 3.7 µM. Moreover, the CC50 in “in vitro” is greater than 10 µM.

Regarding `Brc1ccc2nccc(Nc3cccc4c3CCO4)c2c1` [Compound 35], the EC50 with DENV2 (setting [1]) amounted to 0.95 µM. The compound further gave a CC50 in the data set “in vitro” greater than 10 µM.

In the case of `O=c1[nH]c2ccc(Nc3ccnc4ccc(Br)cc34)cc2[nH]1` [Compound 53], the EC50 in the data set on DENV2 (setting [1]) is greater than 10 µM. For the same compound, in the data set “in vitro”, the CC50 at 48 h was greater than 10 µM.

For `Cn1ncc2c(Nc3ccnc4ccc(Br)cc34)cccc21` [Compound 47], the EC50 with DENV2 (setting [1]) was roughly 5 µM; in the data set with DENV2, 5.4 µM. Also, the CC50 at 48 h in the data set “in vitro” is greater than 10 µM.

As to `OCc1cccc(Nc2ccnc3ccc(C(F)(F)F)cc23)c1` [Compound 10], in the data set with DENV2 (setting [1]), the EC50 worked out at 6.6 µM. In “in vitro”, the CC50 was greater than 10 µM.

In the case of `Brc1ccc2nccc(Nc3cccc4[nH]ncc34)c2c1` [Compound 48], in the data set with DENV2 (setting [1]), the EC50 came to 2.1 µM. This compound showed a CC50 at 48 h in the data set “in vitro” greater than 10 µM.

In the case of `Nc1cccc(Nc2ccnc3ccc(C(F)(F)F)cc23)c1` [Compound 7], the EC50 in the data set with DENV2 (setting [1]) is 5.9 µM. For the same compound, the CC50 in “in vitro” is greater than 10 µM.

For the compound `Brc1ccc2nccc(Nc3cccc4nsnc34)c2c1` [Compound 45], in the data set with DENV2 (setting [1]), the EC50 was found to be 5.8 µM. The compound further registered a CC50 at 48 h in the data set “in vitro” greater than 10 µM.

For `Brc1ccc2nccc(Nc3ccc4c(c3)OCO4)c2c1` [Compound 28], in the data set with DENV2 (setting [1]), the EC50 was determined as 1.7 µM. Also, the CC50 in the data set “in vitro” stood at 8.6 µM.

Turning to `Brc1ccc2nccc(Nc3cccc4nonc34)c2c1` [Compound 44], in the data set on DENV2 (setting [1]), the EC50 came to 9.2 µM. The same compound returned a CC50 at 48 h in the data set “in vitro” greater than 10 µM.

For the compound `Cn1nnc2c(Nc3ccnc4ccc(Br)cc34)cccc21` [Compound 46], the half-maximal effective concentration (EC50) in the data set with DENV2 (setting [1]) was roughly 5 µM; in the data set on DENV2, 5.5 µM. The compound further returned a CC50 at 48 h in the data set “in vitro” greater than 10 µM.

`CNc1cccc(Nc2ccnc3ccc(C(F)(F)F)cc23)c1` [Compound 8]: the EC50 with DENV2 (setting [1]) was 8.9 µM. The CC50 in the data set “in vitro” is greater than 10 µM.

In the case of `FS(F)(F)(F)(F)c1cccc(Nc2ccnc3ccc(Br)cc23)c1` [Compound 25], the 50% effective concentration (EC50) in the data set with DENV2 (setting [1]) came to 1.5 µM. This compound displayed a CC50 in “in vitro” greater than 10 µM.

For the compound `Brc1ccc2nccc(Nc3ccc4[nH]ncc4c3)c2c1` [Compound 51], the EC50 with DENV2 (setting [1]) turned out to be 1.2 µM. The CC50 at 48 h in the data set “in vitro” is greater than 10 µM.

As to `Oc1cccc(Nc2ccnc3ccccc23)c1` [Compound 14], in the data set with DENV2 (setting [1]), the EC50 was greater than 10 µM. Also, in “in vitro”, the CC50 was greater than 10 µM.

With `COc1ccc2nccc(Nc3cccc(O)c3)c2c1` [Compound 16], the concentration giving a half-maximal response (EC50) with DENV2 (setting [1]) was greater than 10 µM. For the same compound, the CC50 in the data set “in vitro” is greater than 10 µM.

`COc1cccc(Nc2ccnc3ccccc23)c1` [Compound 13]: the EC50 in the data set on DENV2 (setting [1]) stood at 2.5 µM. The CC50 in “in vitro” is greater than 10 µM.

With `COc1cccc(Nc2ccnc3ccc(OC)cc23)c1` [Compound 15], the EC50 with DENV2 (setting [1]) turned out to be 4.4 µM. In the data set “in vitro”, this compound came in with a CC50 greater than 10 µM.

Turning to `COc1cccc(Nc2ccnc3ccc(S(C)(=O)=O)cc23)c1` [Compound 17], in the data set on DENV2 (setting [1]), the EC50 was greater than 10 µM. In addition, the CC50 in the data set “in vitro” is greater than 10 µM.

As to `Brc1ccc2nccc(Nc3ccc4c(c3)COC4)c2c1` [Compound 29], the EC50 with DENV2 (setting [1]) is greater than 10 µM. This compound gave a CC50 in “in vitro” greater than 10 µM.

As to `OCc1ccccc1Nc1ccnc2ccc(Br)cc12` [Compound 24], the concentration for a half-maximal effect (EC50) in the data set on DENV2 (setting [1]) was 7.1 µM. Further, the CC50 in “in vitro” was greater than 10 µM.

In the case of `O=c1[nH]c2cc(Nc3ccnc4ccc(Br)cc34)ccc2o1` [Compound 54], in the data set with DENV2 (setting [1]), the EC50 was greater than 10 µM. Also, the CC50 in “in vitro” is greater than 10 µM.

With `Brc1ccc2nccc(Nc3cccc4c3OCO4)c2c1` [Compound 30], the EC50 with DENV2 (setting [1]) is greater than 10 µM. The compound further yielded a CC50 in the data set “in vitro” greater than 10 µM.

Consider `CC(C)(C)Oc1cccc(Nc2ccnc3ccc(Br)cc23)c1` [Compound 26], for which, in the data set on DENV2 (setting [1]), the EC50 turned out to be 2.3 µM. Besides, the CC50 in the data set “in vitro” was 9.2 µM.

Turning to `Brc1ccc2nccc(Nc3cccc4cnoc34)c2c1` [Compound 39], the EC50 with DENV2 (setting [1]) is greater than 10 µM. The compound also registered a CC50 at 48 h in “in vitro” greater than 10 µM.

As to `COc1cccc(Nc2ccnc3ccc(Br)cc23)c1` [Compound 11], the EC50 with DENV2 (setting [1]) was determined as 0.84 µM. The compound also gave a CC50 in the data set “in vitro” greater than 10 µM.

Consider `CC(C)(C)c1cccc(Nc2ccnc3ccc(Br)cc23)c1` [Compound 27], for which, in the data set on DENV2 (setting [1]), the EC50 came out at 0.94 µM. Further, in the data set “in vitro”, the CC50 was 6 µM.

For the compound `Brc1ccc2nccc(Nc3cccc4scnc34)c2c1` [Compound 42], the EC50 with DENV2 (setting [1]) was greater than 10 µM. In addition, the CC50 in “in vitro” is greater than 10 µM.

For the compound `COc1cccc(Nc2ccnc3ccc(Br)cc23)c1OC` [Compound 33], the EC50 in the data set with DENV2 (setting [1]) amounted to 7.8 µM. The compound further yielded a CC50 at 48 h in “in vitro” greater than 10 µM.

The record behind these values is publication PMC8659069, “Optimization of 4-Anilinoquinolines as Dengue Virus Inhibitors” (Molecules, 2021).
